In ChEMBL document CHEMBL4376886, “Design, Synthesis, and Evaluation of Novel Enterovirus 71 Inhibitors as Therapeutic Drug Leads for the Treatment of Human Hand, Foot, and Mouth Disease” (J Med Chem, 2020):

How the values were obtained:
[1] = Inhibition of capsid protein VP1 in Enterovirus 71 (FY)-Luc infected in human RD cells assessed as reduction in virus-induced cell death preincubated for 24 hrs followed by […] substrate addition and measured after 5 mins by chemiluminescence analysis; format: cell-based, Enterovirus A71; settings: Enterovirus A
[2] = Cytotoxicity against human RD cells assessed as reduction in cell viability incubated for 24 hrs by MTT assay; settings: RD cells
[3] = Acute toxicity in juvenile zebrafish assessed as fatality rate at 200 uM after 24 hrs; settings: in vivo
[4] = Acute toxicity in juvenile zebrafish assessed as fatality rate at 20 uM after 24 hrs; settings: in vivo
[5] = Acute toxicity in juvenile zebrafish assessed as pericarditis at 100 uM after 24 hrs; parameters: species or system Danio rerio; settings: in vivo
[6] = Acute toxicity in juvenile zebrafish assessed as fatality rate at 50 uM after 24 hrs; settings: in vivo
[7] = Acute toxicity in juvenile zebrafish assessed as fatality rate at 100 uM after 24 hrs; settings: in vivo
[8] = Acute toxicity in juvenile zebrafish assessed as fatality rate at 20 uM after 48 hrs; settings: in vivo
[9] = Acute toxicity in juvenile zebrafish assessed as fatality rate at 50 uM after 48 hrs; settings: in vivo
[10] = Acute toxicity in juvenile zebrafish assessed as fatality rate at 100 uM after 48 hrs; settings: in vivo
[11] = Acute toxicity in juvenile zebrafish assessed as fatality rate at 200 uM after 48 hrs; settings: in vivo
[12] = in vivo; settings: zebrafish
Description: Acute toxicity in juvenile zebrafish assessed as fatality rate at 150 uM after 24 hrs

[13] = in vivo; settings: zebrafish; remark: listed apart in the source
Description: Acute toxicity in juvenile zebrafish assessed as fatality rate at 150 uM after 48 hrs

In the case of `CCO/N=C/c1ccc(OCCC(C)CCN2CCN(c3cccc(N)c3)C2=O)cc1` (stereo not given), the EC50 [1] is reported as > 25 nM and the CC50 at 24 h [2] is reported as > 100 µM.

With `CC(CCOc1ccc(-c2noc(C(C)(C)C)n2)cc1)CCN1CCN(c2ccnc(N)c2)C1=O` (stereo not given) the EC50 [1] was 0.0092 nM, the CC50 at 24 h [2] was 55 µM and the mortality at 24 h, 200 µM [3] was 100%. The mortality at 24 h, 20 µM [4] was 0%, the Activity [5] was “Toxic” and the mortality at 24 h, 50 µM [6] was 0%. The mortality at 24 h, 100 µM [7] was 80%, the mortality at 48 h, 20 µM [8] was 0% and the mortality at 48 h, 50 µM [9] was 0%. The mortality at 48 h, 100 µM [10] was 100%, the mortality at 48 h, 200 µM [11] was 100% and the mortality at 24 h, 150 µM [12] was 100%. It also gave a mortality at 48 h, 150 µM [13] of 100%.

With `CCCc1nc(-c2ccc(OCCC(C)CCN3CCN(c4ccnc(N)c4)C3=O)cc2)no1` (stereo not given) the EC50 [1] was 0.15 nM, the CC50 at 24 h [2] was > 100 µM and the mortality at 24 h, 200 µM [3] was 100%. For the same compound, the mortality at 24 h, 20 µM [4] was 40%, the mortality at 24 h, 50 µM [6] was 100% and the mortality at 24 h, 100 µM [7] was 100%. It also gave a mortality at 48 h, 20 µM [8] of 60%, a mortality at 48 h, 50 µM [9] of 100% and a mortality at 48 h, 100 µM [10] of 100%. For the same compound, the mortality at 48 h, 200 µM [11] was 100%, the mortality at 24 h, 150 µM [12] was 100% and the mortality at 48 h, 150 µM [13] was 100%.

For `CCO/N=C/c1ccc(OCCC(C)CCN2CCN(c3ccccc3)C2=O)cc1` (stereo not given), the EC50 [1] was 1.12 nM, the CC50 at 24 h [2] was > 100 µM and the mortality at 24 h, 200 µM [3] was 100%. It also gave a mortality at 24 h, 20 µM [4] of 100%, a mortality at 24 h, 50 µM [6] of 100% and a mortality at 24 h, 100 µM [7] of 100%. The mortality at 48 h, 20 µM [8] was 100%, the mortality at 48 h, 50 µM [9] was 100% and the mortality at 48 h, 100 µM [10] was 100%. For the same compound, the mortality at 48 h, 200 µM [11] was 100%, the mortality at 24 h, 150 µM [12] was 100% and the mortality at 48 h, 150 µM [13] was 100%.

For `CCO/N=C/c1ccc(OCCCCCN2CCN(c3ccnc(N)c3)C2=O)cc1`, the EC50 [1] was 0.072 nM, the CC50 at 24 h [2] was 59 µM and the mortality at 24 h, 200 µM [3] was 100%. It also gave a mortality at 24 h, 20 µM [4] of 20%, a mortality at 24 h, 50 µM [6] of 0% and a mortality at 24 h, 100 µM [7] of 100%. For the same compound, the mortality at 48 h, 20 µM [8] was 20%, the mortality at 48 h, 50 µM [9] was 100% and the mortality at 48 h, 100 µM [10] was 100%. For the same compound, the mortality at 48 h, 200 µM [11] was 100%, the mortality at 24 h, 150 µM [12] was 100% and the mortality at 48 h, 150 µM [13] was 100%.

For `Cc1nc(-c2cc(C)c(OCCC(C)CCN3CCN(c4ccnc(N)c4)C3=O)c(C)c2)no1` (stereo not given), the EC50 [1] was > 25 nM and the CC50 at 24 h [2] was 28.8 µM.

In the case of `CCO/N=C/c1cc(C)c(OCCC(C)CCN2CCN(c3ccnc(N)c3)C2=O)c(C)c1` (stereo not given), the EC50 [1] is reported as > 25 nM and the CC50 at 24 h [2] is reported as 12.8 µM.

In the case of `CCc1nc(-c2ccc(OCCC(C)CCN3CCN(c4ccnc(N)c4)C3=O)cc2)no1` (stereo not given), the EC50 [1] is reported as 0.0084 nM, the CC50 at 24 h [2] is reported as > 100 µM and the mortality at 24 h, 200 µM [3] is reported as 100%. It also gave a mortality at 24 h, 20 µM [4] of 40%, a mortality at 24 h, 50 µM [6] of 10% and a mortality at 24 h, 100 µM [7] of 30%. It also gave a mortality at 48 h, 20 µM [8] of 60%, a mortality at 48 h, 50 µM [9] of 100% and a mortality at 48 h, 100 µM [10] of 100%. It also gave a mortality at 48 h, 200 µM [11] of 100%, a mortality at 24 h, 150 µM [12] of 80% and a mortality at 48 h, 150 µM [13] of 100%.

In the case of `Cc1nc(-c2ccc(OCCC(C)CCN3CCN(c4ccnc(N)c4)C3=O)cc2)no1` (stereo not given), the EC50 [1] is reported as 0.0061 nM, the CC50 at 24 h [2] is reported as 66.1 µM and the mortality at 24 h, 200 µM [3] is reported as 100%. For the same compound, the mortality at 24 h, 20 µM [4] was 0%, the mortality at 24 h, 50 µM [6] was 0% and the mortality at 24 h, 100 µM [7] was 0%. It also gave a mortality at 48 h, 20 µM [8] of 0%, a mortality at 48 h, 50 µM [9] of 0% and a mortality at 48 h, 100 µM [10] of 100%. The mortality at 48 h, 200 µM [11] was 100%, the mortality at 24 h, 150 µM [12] was 10% and the mortality at 48 h, 150 µM [13] was 100%.

For `CCO/N=C/c1ccc(OCC#CCN2CCN(c3ccnc(N)c3)C2=O)cc1`, the EC50 [1] was > 25 nM and the CC50 at 24 h [2] was > 100 µM.

With `CCO/N=C/c1ccc(OCCCCN2CCN(c3ccnc(N)c3)C2=O)cc1` the EC50 [1] was > 25 nM and the CC50 at 24 h [2] was > 100 µM.

With `CC(=O)Nc1cc(N2CCN(CCCCCOc3ccc(-c4noc(C)n4)cc3)C2=O)ccn1` the EC50 [1] was > 25 nM and the CC50 at 24 h [2] was > 100 µM.

In the case of `CC(CCN1CCN(Cc2ccccc2)CC1)CCN1CCN(c2ccnc(N)c2)C1=O` (stereo not given), the EC50 [1] is reported as > 25 nM and the CC50 at 24 h [2] is reported as > 100 µM.

Work on `CCONCc1ccc(OCCC(C)CCN2CCN(c3ccnc(N)c3)C2=O)cc1` (stereo not given) yielded an EC50 [1] of 0.0119 nM and a CC50 at 24 h [2] of 7.37 µM.

In the case of `CCCc1nc(-c2cc(C)c(OCCC(C)CCN3CCN(c4ccnc(N)c4)C3=O)c(C)c2)no1` (stereo not given), the EC50 [1] is reported as > 25 nM and the CC50 at 24 h [2] is reported as 14.1 µM.

For `CC(CCOc1ccc(-c2noc(C(F)(F)F)n2)cc1)CCN1CCN(c2ccnc(N)c2)C1=O` (stereo not given), the EC50 [1] was 0.537 nM, the CC50 at 24 h [2] was 48.1 µM and the mortality at 24 h, 200 µM [3] was 100%. For the same compound, the mortality at 24 h, 20 µM [4] was 0%, the mortality at 24 h, 50 µM [6] was 30% and the mortality at 24 h, 100 µM [7] was 70%. For the same compound, the mortality at 48 h, 20 µM [8] was 0%, the mortality at 48 h, 50 µM [9] was 50% and the mortality at 48 h, 100 µM [10] was 100%. The mortality at 48 h, 200 µM [11] was 100%, the mortality at 24 h, 150 µM [12] was 80% and the mortality at 48 h, 150 µM [13] was 100%.

For `Cc1cc(-c2noc(C(F)(F)F)n2)cc(C)c1OCCC(C)CCN1CCN(c2ccnc(N)c2)C1=O` (stereo not given), the EC50 [1] was > 25 nM and the CC50 at 24 h [2] was > 100 µM.

In the case of `CCONC(=O)c1ccc(OCCC(C)CCN2CCN(c3ccnc(N)c3)C2=O)cc1` (stereo not given), the EC50 [1] is reported as > 25 nM and the CC50 at 24 h [2] is reported as > 100 µM.

In the case of `CC(CCOc1ccc(/C=N/O)cc1)CCN1CCN(c2ccnc(N)c2)C1=O` (stereo not given), the EC50 [1] is reported as > 25 nM and the CC50 at 24 h [2] is reported as > 100 µM.

In the case of `CCO/N=C/c1ccc(OCCC(C)CCN2CCN(c3ccnc(OC)c3)C2=O)cc1` (stereo not given), the EC50 [1] is reported as 10 nM, the CC50 at 24 h [2] is reported as > 100 µM and the mortality at 24 h, 200 µM [3] is reported as 100%. For the same compound, the mortality at 24 h, 20 µM [4] was 100%, the mortality at 24 h, 50 µM [6] was 100% and the mortality at 24 h, 100 µM [7] was 100%. For the same compound, the mortality at 48 h, 20 µM [8] was 100%, the mortality at 48 h, 50 µM [9] was 100% and the mortality at 48 h, 100 µM [10] was 100%. For the same compound, the mortality at 48 h, 200 µM [11] was 100%, the mortality at 24 h, 150 µM [12] was 100% and the mortality at 48 h, 150 µM [13] was 100%.

For `CCO/N=C/c1ccc(OCCC(C)CCN2CCN(c3ccnc(O)c3)C2=O)cc1` (stereo not given), the EC50 [1] was > 25 nM and the CC50 at 24 h [2] was > 100 µM.

With `CCc1nc(-c2cc(C)c(OCCC(C)CCN3CCN(c4ccnc(N)c4)C3=O)c(C)c2)no1` (stereo not given) the EC50 [1] was > 25 nM and the CC50 at 24 h [2] was 15.7 µM.
